Assay results from publication PMC10540216, “Activity Guided Azide-methyllysine Photo-trapping for Substrate Profiling of Lysine Demethylases” (Journal of the American Chemical Society, 2023).
Entries after “also recorded” stand apart in the source; their conditions may differ. Where a SMILES comes first, the peptide text is derived from it. Where no end group is shown, it is not given here. [ ]: non-standard residue; d: D form. Lys(Me3) = C[N+](C)(C)CCCC[C@H](N)C(=O)O; Lys(Me2) = CN(C)CCCC[C@H](N)C(=O)O; Lys(Me) = CNCCCC[C@H](N)C(=O)O

Tests used:
wild-type KDM4A = assay: Photo-crosslinking with TAMRA peptides, in-gel fluorescence; assay type: binding, human; conditions: 10 µM peptide, 20 µM protein, 365 nm UV, 30 minutes at 4 °C
Method: (§1) 10. Photo-crosslinking experiment with peptides and in-gel fluorescence For peptide photo-crosslinking experiments, 10 µM TAMRA-labeled H3K9me0 or H3K9me3 […]
(§2) mM ascorbic acid, 50 mM tris pH 8.0, 50 μM Fe(NH4)2(SO4)2, 200 µM 2OG. Samples were […]
(§3) 365nm 100% irradiated) for 30 minutes at 4 °C on ice. Negative controls were kept in dark on ice for the full 30 minutes. 10 µL of sample was mixed with 5 µL 4X Laemmli dye (Biorad #1610747) and separated on a 4-12 % Criterion XT precast gel (Bio-Rad Laboratories). Gels were imaged on a ChemiDoc MP Imaging system using TAMRA fluorophore excitation wavelength (Emission filter 605/50, Light: green Epi illumination). The gel was subsequently stained with Coomassie brilliant blue R-250 staining solution to confirm the presence of proteins in all the samples. […]

KDM4C-I73AzF = assay: as above; assay type: binding, human; conditions: 10 µM peptide, 20 µM protein, UV irradiation
Method: as §1, §2, §3

KDM4D-L75AzF = assay: as above; assay type: binding, human; conditions: 10 µM peptide, 20 µM protein, UV irradiation
Method: as §1, §2, §3

[1] = test system: catalytically dead AzF variants of KDM4A; assay: as above; assay type: binding, human; conditions: majority of the catalytically dead AzF variants, 10 µM peptide, 20 µM protein, 365 nm UV, 30 minutes
Method: as §1, §2, §3

KDM4A-I71AzF [2] = assay: as above; assay type: binding, human
KDM4E-L72AzF = assay: as above; assay type: binding; conditions: 10 µM peptide, 20 µM protein, UV irradiation
Method: as §1, §2, §3

CBX1 chromodomain [3] = molecular target: T1, CBX1 chromodomain (Homo sapiens, UniProt P83916); assay: Isothermal titration calorimetry of peptide binding to CBX1 chromodomain; conditions: ITC, 25 °C, 1.1 mM peptide into 110 µM CBX1 chromodomain; for Kd: 200mM NaCl, 10% glycerol, 50mM Tris pH 8.0, single binding site model
T1 construct: occupied by CBX1 chromodomain at a concentration of 110 µM; 6xHis (N); made in house
T1 sequence (P83916 21-79 limits assumed): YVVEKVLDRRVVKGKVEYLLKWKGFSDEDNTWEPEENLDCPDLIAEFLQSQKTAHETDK
Method: (§4) 7. Expression and purification of lysine methyltransferases and Chromodomains […]
17. Isothermal Titration Calorimetry
Isothermal titration calorimetry (ITC) was performed with an ITC200 instrument (MicroCal, Malvern). Experiments were conducted at 25 °C while stirring at 750 rpm. Buffers of protein […]
were matched to 200mM NaCl, 10% glycerol, and 50mM Tris pH 8.0. Each titration was performed as follows: one initial injection of 0.4 µL for 0.8 seconds, followed by 19 injections of 2.0 µL for 4 seconds, with ≥2 mins between each injection. The initial injection was discarded prior to data analysis. The microsyringe (40µL) was loaded with 1.1 mM peptide and injected into the cell (200µL), occupied by CBX1 chromodomain at a concentration of 110 µM. Data was fitted to a single binding site model using Microcal ITC200 Software with Origin Lab 7.
(§5) KDM4A mammalian expression plasmid in CMV vector was purchased from Addgene (plasmid #24180). Full-length G9a in pCDNA3 vector was kind from Prof. Minkui Luo at the Memorial Sloan-Kettering Cancer Center. HEK293T/17 cells (ATCC) were grown in a T25 containing Delbucco’s Modified Eagle Medium (DMEM) (Corning) with 10% FBS at 37 °C, 5% CO2, and 95% relative humidity. When cells reached 80% confluency, 5 µg of plasmid and 10 µg

KDM4A = assay: Demethylase activity of wild type KDM4A on peptide substrates (MALDI-TOF MS); assay type: biochemical, human; conditions: 10 µM enzyme, 10 µM peptide, 1 mM 2OG, 50 mM Tris pH 8, 37°C, three hours
Method: fritted syringe was rocked for 2-4 hours at room temperature using a fixed angle rocker (Fisher 07202202). After cleavage, the solvent was ejected from the syringe into a 50mL Falcon tube, leaving behind the resin in the syringe. Nitrogen gas was bubbled through the solution to remove roughly 50% of the TFA prior to precipitation via -80°C diethyl ether for 5-10 minutes (Acros #326860010). Precipitate was then pelleted via centrifugation (Sorvall Legend XTR) at 3000 rpm for 5 mins. Supernatant was decanted. Crude peptide was then resuspended in 0.1% TFA prior to purification and characterization as described for peptides from the peptide facility. The integrity of the purified peptides was confirmed by MALDI-TOF MS. The complete list is in Table S1.
3. Expression and purification of wild type KDM4A-E […]
bacterial expression construct pNIC28-Bsa4 (Addgene ID: 38846) was obtained from Addgene […]
E. Coli BL21 (DE3) competent cells (Invitrogen) using pNIC28-Bsa4 kanamycin-resistant vector.
A single colony was picked up and grown overnight at 37 °C in 10 mL of Luria-Bertani (LB) broth in the presence of 50 μg/mL kanamycin and 35 μg/mL chloramphenicol. The culture was diluted 100-fold and allowed to grow at 37 °C to an optical density (OD600) of 0.8, and protein expression was induced overnight at 17 °C with 0.6 mM IPTG in an Innova 44® Incubator shaker (New Brunswick Scientific). Proteins were purified as follows: harvested cells were resuspended in 15 mL lysis buffer (50 mM Tris-HCl pH 8.0, 200 mM NaCl, 5 mM b-mercaptoethanol, 10% glycerol, 25 mM imidazole, Lysozyme, DNase, and Roche protease inhibitor cocktail). […]
After passing 20 volumes of washing buffer (50 mM Tris-HCl pH 8.0, 200 mM NaCl, 5 mM b-mercaptoethanol, 10% glycerol, and 25 mM imidazole), proteins were eluted with a buffer containing 50 mM Tris-HCl pH 8.0, 200 mM NaCl, 5 mM b-mercaptoethanol, 10% glycerol, and 400 mM imidazole. […] The protein concentration was determined […]
8.0, 200 mM NaCl, and 10% glycerol. […] The protein concentration was determined using Bradford assay kit (BioRad Laboratories) with BSA as a standard. […]

CBX1 chromodomain [4] = molecular target: T1, CBX1 chromodomain; assay: Isothermal titration calorimetry of peptide binding to CBX1 chromodomain; conditions: ITC, T 288.15 K in Table S6
G9a = assay: Methylation of eIF4A3-K374 peptides by KMT (MALDI-TOF MS); assay type: biochemical; conditions: 20 µM KMT, 10 µM peptide, 200 µM SAM
Method: as §4
16. Methylation activity of wild type KMTs on eIF4A3-K374me0/1/2 peptides 20 µM lysine methyltransferase, 10 µM eIF4A3-me0/1/2 peptide and 200 µM SAM were incubated at room temperature for 1-2 hours in 50 mM Tris pH 8.0. Reaction was stopped by storing the microcentrifuge tubes on ice. After mixing, 0.8 µL of sample and 0.8 µL of α-cyano-4-hydroxycinnamic acid (CHCA) (dissolved in 50:50 0.1% TFA and acetonitrile) were combined on a MALDI plate. Samples were ionized using reflectron positive mode on Bruker Daltonics UltrafleXtreme MALDI TOF with detection carried out from 700-3500 m/z. Bruker Flex Analysis software was used to analyze the MALDI-TOF MS spectra.
17. Isothermal Titration Calorimetry […]
The microsyringe (40µL) was loaded with 1.1 mM peptide and injected into the cell (200µL), occupied by CBX1 chromodomain at a concentration of 110 µM. Data was fitted to a single binding site model using Microcal ITC200 Software with Origin Lab 7.
as §5

KDM4A-E = assay: Demethylase activity of KDM4 subfamily on peptide substrates (MALDI-TOF MS), result worded for KDM4A-E together; assay type: biochemical, human; conditions: wild-type KDM4A-E, 10 µM enzyme, 10 µM peptide, 1 mM 2OG, 50 mM Tris pH 8, 37°C, three hours
KDM4A-I71AzF [5] = assay: Demethylase activity of AzF mutant on peptide substrates (MALDI-TOF MS); assay type: biochemical, human; conditions: 10 µM enzyme, 10 µM peptide, 1 mM 2OG, 50 mM Tris pH 8, 37°C, three hours

| Compound | demethylation by KDM4A (KDM4A) | TΔS (CBX1 chromodomain [4]) [kcal/mol] | ΔG (CBX1 chromodomain [4]) [kcal/mol] | ΔH (CBX1 chromodomain [4]) [kcal/mol] | ΔS (CBX1 chromodomain [4]) [cal/mol/degree] | methylation by G9a (in words) (G9a) | Kd (CBX1 chromodomain [3]) [µM] | further results |
| --- | --- | --- | --- | --- | --- | --- | --- | --- |
| (5/6)-TA M R A-GGARTKQTARKme3STGGKAPR [compound 6, tetramethylrhodamine (TAMRA)-attached H3K9me3 peptide] |  |  |  |  |  |  |  | crosslinking with wild-type KDM4A (wild-type KDM4A): failed to undergo crosslinking; crosslinking with KDM4C-I73AzF (KDM4C-I73AzF): successful crosslinking; crosslinking with KDM4D-L75AzF (KDM4D-L75AzF): successful crosslinking; crosslinking with catalytically dead AzF variants [1]: ineffective to trap the substrate; crosslinking with KDM4A-I71AzF (KDM4A-I71AzF [2]; 10 µM peptide, 20 µM protein, 365 nm UV, 30 minutes at 4 °C): robust crosslinking; crosslinking without UV exposure (control) (KDM4A-I71AzF [2]; kept in dark on ice 30 minutes): no fluorescence band was detected; crosslinking with KDM4E-L72AzF (KDM4E-L72AzF): successful crosslinking |
| GRSGRYGR[Lys(Me)]GVAINFVK [compound 22, eIF4A3-K374me1 peptide] | not demethylated by KDM4A; also recorded: failed to convert to Kme0 | 0 | 0 | 0 | 0 | methylated by G9a; also recorded: trimethylated by G9a |  | binding to CBX1 chromodomain (in words) (CBX1 chromodomain [3]; 50mM Tris pH 8.0): no binding; also recorded: not bind to CBX1; also recorded: no detectable interaction |
| CC[C@H](C)[C@H](NC(=O)[C@H](C)NC(=O)[C@@H](NC(=O)CNC(=O)[C@H](CCCC[N+](C)(C)C)NC(=O)[C@H](CCCNC(=N)N)NC(=O)CNC(=O)[C@H](Cc1ccc(O)cc1)NC(=O)[C@H](CCCNC(=N)N)NC(=O)CNC(=O)[C@H](CO)NC(=O)[C@H](CCCNC(=N)N)NC(=O)CN)C(C)C)C(=O)N[C@@H](CC(N)=O)C(=O)N[C@@H](Cc1ccccc1)C(=O)N[C@H](C(=O)N[C@@H](CCCCN)C(N)=O)C(C)C [compound 13] (H-GRSGRYGR[Lys(Me3)]GVAINFVK-NH2) | indeed demethylated by KDM4A in vitro | 2.472 | -6.230 | -3.758 | 8.58 |  | 23.2 ± 2 | demethylation by KDM4A-E (KDM4A-E): demethylated by multiple KDM4s; also recorded: robust demethylation |
| KSAPSTGGVKme3KPHRYKPGTGK [compound 5, H3K36me3 peptide] |  |  |  |  |  |  |  | demethylation by I71AzF mutant (KDM4A-I71AzF [5]): modestly |
| CC[C@H](C)[C@H](NC(=O)[C@H](C)NC(=O)[C@@H](NC(=O)CNC(=O)[C@H](CCCCN(C)C)NC(=O)[C@H](CCCNC(=N)N)NC(=O)CNC(=O)[C@H](Cc1ccc(O)cc1)NC(=O)[C@H](CCCNC(=N)N)NC(=O)CNC(=O)[C@H](CO)NC(=O)[C@H](CCCNC(=N)N)NC(=O)CN)C(C)C)C(=O)N[C@@H](CC(N)=O)C(=O)N[C@@H](Cc1ccccc1)C(=O)N[C@H](C(=O)N[C@@H](CCCCN)C(N)=O)C(C)C [compound 23] (H-GRSGRYGR[Lys(Me2)]GVAINFVK-NH2) | demethylated only to eIF4A3-K374me1 by KDM4A; also recorded: demethylated to Kme1 by KDM4A | -1.106 | -5.470 | -6.576 | -3.84 | methylated by G9a; also recorded: trimethylated by G9a | 95.2 ± 1.4 |  |
